Marks after values point to notes of the source that are not given here.
System: human neutrophils
Test: Chemorepulsion (negative chemotaxis) of neutrophils in Neuroprobe ChemoTx plates, migrated cells quantified with Cell Titer Glo
Format: cell-based
Details: for chemorepulsion class mark in Tables 1-4: methods of Example 1
Procedure: Prior to beginning the assay, the following were prepared: • a. 0.5% Fetal Calf Serum (FCS) in Iscove's Modified Dulbecco's Medium (IMDM) (Assay Medium) (Both from ATCC). • b. Migratory cells at a concentration of 2×10^7 cells/ml in Assay Medium. • c. Four serial (10-fold) dilutions of the ligand of interest in Assay Medium. All stocks were diluted initially 1:100 into Assay Medium and subsequently made into 10 fold dilutions (100 uM, 10 uM, 1 uM, 0.1 uM). […] The same dilutions were followed. • 2. […] The plates were removed from packaging, leaving the membrane behind. • 4. 31 μl of the following solutions were pipetted into each well: • a. For media controls and for chemorepulsion samples, Assay Medium was used. • b. For chemoattraction samples, appropriate dilution of ligand was used. • 5. A sterile needle was used to pop any and all small bubbles present in each well. • 6. The membrane was carefully placed onto the plate, starting at one side and then slowly lowering the other edge onto the plate. • 7. 29 μl of the following were pipetted onto the top of each circle: • a. For media controls and chemoattraction samples, use Assay Medium. • b. For chemorepulsion samples, use the appropriate dilution of ligand. • 8. 2 μl of cells (40,000 cells) were added to each bubble of liquid from step 7. • 9. A needle was used to pop all air bubbles. • 10. The plate was covered with the supplied lid and incubated for the desired time at 37° C. in 5% CO2. Unless otherwise indicated, the incubation time was 1 hour for neutrophils and 3 hours for T cells. For monocytes and B cells, the incubation time was 2 hours. • 11. After the desired assay time, the liquid was removed from the top of the plate using a Kimwipe. At this point, the plate was stored (with the membrane in place) for up to 2 hours at 4° C. • 12. The membrane was carefully removed from the top of the plate and discard. The plate was examined under a microscope to look for ligand crystallization, contamination and overall migration. • 13. White read plates were preloaded with 25 ul PBS. • 14. Using a multichannel pipettor, 5 ul of Cell Titer Glo (Promega # G7572) was added to each well. • 15. Using a multichannel pipettor set at 30 ul, lysed cell solution was transferred to white read plates pre-loaded with PBS. • 16. The plate was read using the BioTek Synergy4 plate reader in order to quantify the number of migrated cells.
Compounds from the chemical analog library were screened once in CR mode as described.

SMILES	chemorepulsion class mark in Tables 1-4 (neutrophils)	other results
COc1ccc2[nH]c(N3CCCC(C(=O)NCCc4ccc(Cl)cc4)C3)nc2c1 (stereo not shown) [Compound 128]	128* (Compounds that showed chemorepulsion that was at least 3-fold greater than media)	–
COc1ccc2[nH]c(N3CCCC(C(=O)NCCc4ccccc4)C3)nc2c1 (stereo not shown) [Compound 157]	157* (Compounds that showed chemorepulsion that was at least 3-fold greater than media)	–
COc1ccc2[nH]c(SCC(=O)c3cc(C(C)(C)C)c(O)c(C(C)(C)C)c3)nc2c1 [Compound 20]	20* (Compounds that showed chemorepulsion that was at least 3-fold greater than media)	–
COc1ccc2[nH]c(SCC(=O)Nc3ccc([N+](=O)[O-])cc3)nc2c1 [Compound 42]	42* (Compounds that showed chemorepulsion that was at least 3-fold greater than media)	–
COc1ccc2[nH]c(Sc3c(-c4ccccc4)c4cc(Cl)ccc4[nH]c3=O)nc2c1 [Compound 54]	54* (Compounds that showed chemorepulsion that was at least 3-fold greater than media)	–
COc1ccc2[nH]c(SCC(=O)Nc3ccccc3F)nc2c1 [Compound 16]	16* (Compounds that showed chemorepulsion that was at least 3-fold greater than media)	–
COCCCOc1ccnc(C[S+]([O-])c2nc3ccccc3[nH]2)c1C (stereo not shown) [rabeprazole, reference compound]	–	chemorepulsion over media (neutrophils, rabeprazole at 106 uM, FIG. 59): greater than 3 fold
COc1ccc2[nH]c(SCC(=O)Nc3ccon3)nc2c1 [Compound 79]	79* (Compounds that showed chemorepulsion that was at least 3-fold greater than media)	–
O=C(CSc1nc2cc([N+](=O)[O-])ccc2[nH]1)Nc1ccccc1F [Compound 12]	12* (Compounds that showed chemorepulsion that was at least 3-fold greater than media)	–
O=[N+]([O-])c1ccc2nc(-c3cn4ccsc4n3)sc2c1 [Compound 132]	132* (Compounds that showed chemorepulsion that was at least 3-fold greater than media)	–
COc1ccc2[nH]c(SCC(=O)Nc3ccc(Br)cc3)nc2c1 [Compound 38]	38* (Compounds that showed chemorepulsion that was at least 3-fold greater than media)	–
COc1ccc2[nH]c(SCc3ccc(Cl)cc3)nc2c1 [Compound 11]	11* (Compounds that showed chemorepulsion that was at least 3-fold greater than media)	–
COc1ccc2[nH]c(SCc3cccc(I)c3)nc2c1 [Compound 45]	45* (Compounds that showed chemorepulsion that was at least 3-fold greater than media)	–
COc1ccc2[nH]c(Sc3c(-c4ccccc4)c4ccc(Cl)cc4[nH]c3=O)nc2c1 [Compound 99]	99* (Compounds that showed chemorepulsion that was at least 3-fold greater than media)	–
CCOc1ccc2[nH]c(SCC(=O)N(c3ccccc3)C(C)C)nc2c1 [Compound 62]	62* (Compounds that showed chemorepulsion that was at least 3-fold greater than media)	–
CSc1nc2cc(Cl)c(Oc3ccc4ccccc4c3Br)cc2[nH]1 [Compound 136]	136* (Compounds that showed chemorepulsion that was at least 3-fold greater than media)	–
COc1ccc(C(=O)CSc2nc3cc(OC)ccc3[nH]2)cc1 [Compound 21]	21* (Compounds that showed chemorepulsion that was at least 3-fold greater than media)	–
CCOc1ccc2[nH]c(SCC(=O)Nc3nccs3)nc2c1 [Compound 60]	60* (Compounds that showed chemorepulsion that was at least 3-fold greater than media)	–

SMILES	chemorepulsion class mark in Tables 1-4 (neutrophils)	other results
COc1ccc2[nH]c(SCC(=O)Nc3ccc(Cl)cc3)nc2c1 [Compound 40]	40* (Compounds that showed chemorepulsion that was at least 3-fold greater than media)	–
COc1ccc2[nH]c(SCC(=O)Nc3ccc4c(c3)OCO4)nc2c1 [Compound 36]	36* (Compounds that showed chemorepulsion that was at least 3-fold greater than media)	–
COc1ccc2[nH]c(SCC(=O)Nc3cc(Cl)ccc3OC)nc2c1 [Compound 37]	37* (Compounds that showed chemorepulsion that was at least 3-fold greater than media)	–
COc1ccc2[nH]c(SCc3cnc(C)nc3N)nc2c1 [Compound 80]	80* (Compounds that showed chemorepulsion that was at least 3-fold greater than media)	–
COc1ccc2[nH]c(SCc3ccc(Cl)c(Cl)c3)nc2c1 [Compound 22]	22* (Compounds that showed chemorepulsion that was at least 3-fold greater than media)	–
COc1ccc2nc([S@@+]([O-])Cc3ncc(C)c(OC)c3C)[nH]c2c1 [esomeprazole, reference compound]	–	chemorepulsion of neutrophils in response to the compound (0.048, 0.48, 4.8 or 48 uM, FIGS. 1A, 1B and 1C): showed chemorepulsion; dose dependence of the induction of chemotaxis / chemorepulsion (neutrophils, four 10-fold dilutions): dose-dependent
COc1ccc2[nH]c(SCC(=O)Nc3nc4ccc(OC)cc4s3)nc2c1 [Compound 17]	17* (Compounds that showed chemorepulsion that was at least 3-fold greater than media)	–
COc1ccc(NC(=O)CSc2nc3cc([N+](=O)[O-])ccc3[nH]2)c(OC)c1 [Compound 33]	33* (Compounds that showed chemorepulsion that was at least 3-fold greater than media)	–
O=C(CSc1nc2cc([N+](=O)[O-])ccc2[nH]1)Nc1ccc(O)c(C(=O)O)c1 [Compound 59]	59* (Compounds that showed chemorepulsion that was at least 3-fold greater than media)	–
COc1ccc2[nH]c(SCC(=O)NCc3ccccc3)nc2c1 [Compound 15]	15* (Compounds that showed chemorepulsion that was at least 3-fold greater than media)	–
CCOc1ccc2[nH]c(SCC(=O)Nc3ccc(O)c(C(=O)O)c3)nc2c1 [Compound 58]	58* (Compounds that showed chemorepulsion that was at least 3-fold greater than media)	–
CCOc1ccc2[nH]c(SCC(=O)Nc3ccccc3)nc2c1 [Compound 63]	63* (Compounds that showed chemorepulsion that was at least 3-fold greater than media)	–
COc1ccc2[nH]c(SCC(=O)Nc3ccccc3[N+](=O)[O-])nc2c1 [Compound 41]	41* (Compounds that showed chemorepulsion that was at least 3-fold greater than media)	–
COc1ccc2[nH]c(SCC(=O)Nc3ccccc3Br)nc2c1 [Compound 39]	39* (Compounds that showed chemorepulsion that was at least 3-fold greater than media)	–
COc1ccc2[nH]c(Sc3ccc(C(F)(F)F)cc3[N+](=O)[O-])nc2c1 [Compound 88]	88* (Compounds that showed chemorepulsion that was at least 3-fold greater than media)	–
COc1ccc2[nH]c(SCC(=O)Nc3cc(NC(=O)CSc4nc5cc(OC)ccc5[nH]4)cc(C(=O)O)c3)nc2c1 [Compound 43]	43* (Compounds that showed chemorepulsion that was at least 3-fold greater than media)	–
COc1ccc2[nH]c([S+]([O-])Cc3ncc(C)c(OC)c3C)nc2c1 (stereo not shown) [omeprazole, reference compound]	–	chemorepulsion relative to cells treated with media alone (neutrophils, omeprazole 0.1, 1, 10 and 100 uM, FIG. 2): greater than 5 fold
COc1ccc2[nH]c(SCC(=O)c3ccc4c(c3)OCO4)nc2c1 [Compound 23]	23* (Compounds that showed chemorepulsion that was at least 3-fold greater than media)	–

Source: patent publication US20100093747A1, “METHOD OF INDUCING NEGATIVE CHEMOTAXIS” (priority 2008, published 2010)
